From patent US9890149B2 (NuBridge BioSciences, priority 2015, dated 2018)

What follows are molecules tested against T1, ΔF508 mutant CFTR (Homo sapiens, UniProt P13569, DEL508-508) (assay: Fluorescence Assay (halide-sensitive YFP, iodide influx) for ΔF508 mutant CFTR activity). Conditions: FRT cells expressing ΔF508-CFTR and YFP-H148Q/I152L, incubated 27° C. 20-24 h; forskolin (20 μM) and test compounds (20 μM) for 20 min; rate of fluorescence quenching by I−, normalized to forskolin alone.
T1 construct: expressed in transfected cells; host or cells: Fischer rat thyroid (FRT) cells
Format: cell-based
Excerpt: The ΔF508 mutant CFTR activities of the CFTR modulators are detected using the Fluorescence Assay developed by Pedemonte (Pedemonte N., et al., Antihypertensive 1,4-dihydropyridines as correctors of the cystic fibrosis transmembrane conductance regulator channel gating defect caused by cystic fibrosis mutations, Mol. Pharmacol., 2005, 68, 1736-1746).
Fischer rat thyroid (FRT) cells, stably transfected with ΔF508 were retransfected with the YFP-H148Q/I152L fluorescent protein. The cells were plated (100,000 cells/well) on black 96-well microplates with clear plastic bottom (Corning Life Sciences, Acton, Mass.).
The 96-well microplates containing FRT cells expressing F508-CFTR and the halide-sensitive YFP were incubated at 27° C. for 20 to 24 h to allow rescue of the mutant protein to the plasma membrane. After incubation, cells were washed with PBS (containing 137 mM NaCl, 2.7 mM KCl, 8.1 mM Na2HPO4, 1.5 mM KH2PO4, 1 mM CaCl2, and 0.5 mM MgCl2) and stimulated for 20 min with forskolin (20 μM) and test compounds (20 μM) in a final volume of […] Microplates were then transferred to a microplate reader for CFTR activity determination.

T1 sequence (P13569 with tags, fused parts or gaps DEL508-508): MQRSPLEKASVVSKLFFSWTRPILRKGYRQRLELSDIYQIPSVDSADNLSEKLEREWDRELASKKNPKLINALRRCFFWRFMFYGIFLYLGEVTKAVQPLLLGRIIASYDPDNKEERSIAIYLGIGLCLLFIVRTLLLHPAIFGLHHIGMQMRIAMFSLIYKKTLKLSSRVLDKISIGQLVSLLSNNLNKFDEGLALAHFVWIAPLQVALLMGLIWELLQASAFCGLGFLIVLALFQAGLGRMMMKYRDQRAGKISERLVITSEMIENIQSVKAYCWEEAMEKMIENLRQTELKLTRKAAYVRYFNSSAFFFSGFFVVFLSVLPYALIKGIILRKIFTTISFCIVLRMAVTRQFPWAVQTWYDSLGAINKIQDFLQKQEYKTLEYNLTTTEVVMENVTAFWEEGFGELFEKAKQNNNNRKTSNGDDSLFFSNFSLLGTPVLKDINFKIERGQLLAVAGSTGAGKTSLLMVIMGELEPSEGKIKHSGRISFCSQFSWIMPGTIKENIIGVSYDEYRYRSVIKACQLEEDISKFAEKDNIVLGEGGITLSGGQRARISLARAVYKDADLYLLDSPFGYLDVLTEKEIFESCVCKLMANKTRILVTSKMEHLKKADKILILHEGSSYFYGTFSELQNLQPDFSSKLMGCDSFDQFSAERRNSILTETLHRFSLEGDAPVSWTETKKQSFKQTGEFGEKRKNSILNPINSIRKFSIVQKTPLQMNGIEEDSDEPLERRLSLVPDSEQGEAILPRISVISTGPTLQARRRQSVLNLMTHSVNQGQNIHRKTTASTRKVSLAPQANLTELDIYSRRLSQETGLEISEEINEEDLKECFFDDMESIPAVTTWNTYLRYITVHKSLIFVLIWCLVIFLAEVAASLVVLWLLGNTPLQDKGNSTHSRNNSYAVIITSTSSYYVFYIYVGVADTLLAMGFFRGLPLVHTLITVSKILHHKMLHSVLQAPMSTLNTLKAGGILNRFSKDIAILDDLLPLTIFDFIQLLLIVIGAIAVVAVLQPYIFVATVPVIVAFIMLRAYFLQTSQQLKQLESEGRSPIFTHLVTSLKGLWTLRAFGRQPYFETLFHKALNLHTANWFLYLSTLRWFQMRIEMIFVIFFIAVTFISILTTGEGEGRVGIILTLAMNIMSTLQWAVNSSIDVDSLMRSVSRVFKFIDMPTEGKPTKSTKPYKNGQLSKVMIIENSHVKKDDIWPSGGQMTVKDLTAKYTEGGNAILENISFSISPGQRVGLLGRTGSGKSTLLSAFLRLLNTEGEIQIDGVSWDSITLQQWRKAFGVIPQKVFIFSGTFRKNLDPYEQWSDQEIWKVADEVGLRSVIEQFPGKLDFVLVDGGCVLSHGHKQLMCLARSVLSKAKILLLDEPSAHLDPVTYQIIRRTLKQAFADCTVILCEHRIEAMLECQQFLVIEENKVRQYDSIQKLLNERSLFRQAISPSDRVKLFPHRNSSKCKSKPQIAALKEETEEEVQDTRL

Row | Compound | CFTR Activity
1 | Cl.NCC(CCl)Oc1sncc1NC(=O)c1nc(-c2c(F)cccc2F)c(F)cc1N (centres unmarked) [Example 33, 3-amino-N-(5-((1-amino-3-chloropropan-2-yl)oxy)isothiazol-4-yl)-6-(2,6-difluorophenyl)-5-fluoropicolinamide hydrochloride] | 1.6
2 | Cl.NCC(CCl)COc1sncc1NC(=O)c1nc(-c2c(F)cccc2F)c(F)cc1N (centres unmarked) [Example 34, 3-amino-N-(5-(3-amino-2-(chloromethyl)propoxy)isothiazol-4-yl)-6-(2,6-difluorophenyl)-5-fluoropicolinamide hydrochloride] | 1.6
3 | Cl.Nc1cc(F)c(-c2c(F)cccc2F)nc1C(=O)Nc1cnsc1OCC1CCCNC1 (centres unmarked) [Example 35, 3-amino-6-(2,6-difluorophenyl)-5-fluoro-N-(5-(piperidin-3-ylmethoxy)isothiazol-4-yl)picolinamide hydrochloride] | 1.6
4 | Cl.NCCCCOc1sncc1NC(=O)c1nc(-c2c(F)cccc2F)c(F)cc1N [Example 36, 3-amino-N-(5-(4-aminobutoxy)isothiazol-4-yl)-6-(2,6-difluorophenyl)-5-fluoropicolinamide hydrochloride] | 1.8
5 | Cl.Nc1cc(F)c(-c2c(F)cccc2F)nc1C(=O)Nc1cnsc1OC1CCCC(N)C1 (centres unmarked) [Example 37, 3-amino-N-(5-((3-aminocyclohexyl)oxy)isothiazol-4-yl)-6-(2,6-difluorophenyl)-5-fluoropicolinamide hydrochloride] | 2.9
6 | Cl.Nc1cc(F)c(-c2ccccc2)nc1C(=O)Nc1cnsc1OC1CCNC1 (centres unmarked) [Example 38, 3-amino-5-fluoro-6-phenyl-N-(5-(pyrrolidin-3-yloxy)isothiazol-4-yl)picolinamide hydrochloride] | 1.3
7 | Cl.O=C(Nc1cnsc1OC1CCNCC1)c1ccc(F)c(-c2ccncc2)n1 [Example 39, 3-fluoro-N-(5-(piperidin-4-yloxy)isothiazol-4-yl)-[2,4′-bipyridine]-6-carboxamide hydrochloride] | 0.3
8 | Cl.O=C(Nc1cnsc1OC1CCCNCC1)c1nc(-c2c(F)cccc2F)ccc1F (centres unmarked) [Example 40, N-(5-(azepan-4-yloxy)isothiazol-4-yl)-6-(2,6-difluorophenyl)-3-fluoropicolinamide hydrochloride] | 1.4
9 | COc1cccc(F)c1-c1nc(C(=O)Nc2cnsc2OC2CCCNCC2)ccc1F.Cl (centres unmarked) [Example 41, N-(5-(azepan-4-yloxy)isothiazol-4-yl)-5-fluoro-6-(2-fluoro-6-methoxyphenyl)picolinamide hydrochloride] | 1.6
10 | Cl.O=C(Nc1cnsc1OC1CCCNCC1)c1ccc(C(F)(F)F)c(-c2c(F)cccc2F)n1 (centres unmarked) [Example 42, N-(5-(azepan-4-yloxy)isothiazol-4-yl)-6-(2,6-difluorophenyl)-5-(trifluoromethyl)picolinamide hydrochloride] | 0.4
11 | Cl.O=C(Nc1cnsc1OCC1CCNCC1)c1ccc(C(F)(F)F)c(-c2c(F)cccc2F)n1 [Example 43, 6-(2,6-difluorophenyl)-N-(5-(piperidin-4-ylmethoxy)isothiazol-4-yl)-5-(trifluoromethyl)picolinamide hydrochloride] | 0.3
12 | Cl.O=C(Nc1cnsc1OCC1CNC1)c1ccc(C(F)(F)F)c(-c2c(F)cccc2F)n1 [Example 44, N-(5-(azetidin-3-ylmethoxy)isothiazol-4-yl)-6-(2,6-difluorophenyl)-5-(trifluoromethyl)picolinamide hydrochloride] | 0.3
13 | Cl.O=C(Nc1cnsc1OC1CCNCC1)c1ccc(C(F)(F)F)c(-c2c(F)cccc2F)n1 [Example 45, 6-(2,6-difluorophenyl)-N-(5-(piperidin-4-yloxy)isothiazol-4-yl)-5-(trifluoromethyl)picolinamide hydrochloride] | 1.7
14 | Cl.N[C@H]1CC[C@H](Oc2sncc2NC(=O)c2ccc(C(F)(F)F)c(-c3c(F)cccc3F)n2)CC1 [Example 46, N-(5-(((1r,4r)-4-aminocyclohexyl)oxy)isothiazol-4-yl)-6-(2,6-difluorophenyl)-5-(trifluoromethyl)picolinamide hydrochloride] | 1
15 | O=C(Nc1cnsc1OCC1CCOCC1)c1ccc(C(F)(F)F)c(-c2c(F)cccc2F)n1 [Example 47] | 0.6
16 | Cl.Nc1cc(C(F)(F)F)c(-c2c(F)cccc2F)nc1C(=O)Nc1cnsc1OC1CCCNCC1 (centres unmarked) [Example 48, 3-amino-N-(5-(azepan-4-yloxy)isothiazol-4-yl)-6-(2,6-difluorophenyl)-5-(trifluoromethyl)picolinamide hydrochloride] | 0.7
17 | Cl.Nc1cc(C(F)(F)F)c(-c2c(F)cccc2F)nc1C(=O)Nc1cnsc1OCC1CCNCC1 [Example 49, 3-amino-6-(2,6-difluorophenyl)-N-(5-(piperidin-4-ylmethoxy)isothiazol-4-yl)-5-(trifluoromethyl)picolinamide hydrochloride] | 0.2
18 | Cl.Nc1cc(C(F)(F)F)c(-c2c(F)cccc2F)nc1C(=O)Nc1cnsc1OCC1CNC1 [Example 50, 3-amino-N-(5-(azetidin-3-ylmethoxy)isothiazol-4-yl)-6-(2,6-difluorophenyl)-5-(trifluoromethyl)picolinamide hydrochloride] | 0.1
19 | Cl.Nc1cc(C(F)(F)F)c(-c2c(F)cccc2F)nc1C(=O)Nc1cnsc1OC1CCNCC1 [Example 51, 3-amino-6-(2,6-difluorophenyl)-N-(5-(piperidin-4-yloxy)isothiazol-4-yl)-5-(trifluoromethyl)picolinamide hydrochloride] | 0.7
20 | Cl.Nc1cc(C(F)(F)F)c(-c2c(F)cccc2F)nc1C(=O)Nc1cnsc1O[C@H]1CC[C@H](N)CC1 [Example 52, 3-amino-N-(5-(((1r,4r)-4-aminocyclohexyl)oxy)isothiazol-4-yl)-6-(2,6-difluorophenyl)-5-(trifluoromethyl)picolinamide hydrochloride] | 4.6
21 | Cl.Nc1cc(C(F)(F)F)c(-c2ccccc2)nc1C(=O)Nc1cnsc1OC1CCNC1 (centres unmarked) [Example 53, 3-amino-6-phenyl-N-(5-(pyrrolidin-3-yloxy)isothiazol-4-yl)-5-(trifluoromethyl)picolinamide hydrochloride] | 0.4
22 | Cl.NCC(CCl)COc1sncc1NC(=O)c1ccc(C(F)(F)F)c(-c2c(F)cccc2F)n1 (centres unmarked) [Example 54, N-(5-(3-amino-2-(chloromethyl)propoxy)isothiazol-4-yl)-6-(2,6-difluorophenyl)-5-(trifluoromethyl)picolinamide hydrochloride] | 0.5
23 | Cl.NCC(CCl)COc1sncc1NC(=O)c1nc(-c2c(F)cccc2F)c(C(F)(F)F)cc1N (centres unmarked) [Example 55, 3-amino-N-(5-(3-amino-2-(chloromethyl)propoxy)isothiazol-4-yl)-6-(2,6-difluorophenyl)-5-(trifluoromethyl)picolinamide hydrochloride] | 0.5
24 | Cl.NCC(CO)COc1sncc1NC(=O)c1ccc(F)c(-c2c(F)cccc2F)n1 (centres unmarked) [Example 56, N-(5-(3-amino-2-(hydroxymethyl)propoxy)isothiazol-4-yl)-6-(2,6-difluorophenyl)-5-fluoropicolinamide hydrochloride] | 0.5
25 | Cl.NCC(CO)COc1sncc1NC(=O)c1nc(-c2c(F)cccc2F)c(F)cc1N (centres unmarked) [Example 57, 3-amino-N-(5-(3-amino-2-(hydroxymethyl)propoxy)isothiazol-4-yl)-6-(2,6-difluorophenyl)-5-fluoropicolinamide hydrochloride] | 1.8
26 | Cl.NCC(CO)COc1sncc1NC(=O)c1ccc(C(F)(F)F)c(-c2c(F)cccc2F)n1 (centres unmarked) [Example 58, N-(5-(3-amino-2-(hydroxymethyl)propoxy)isothiazol-4-yl)-6-(2,6-difluorophenyl)-5-(trifluoromethyl)picolinamide hydrochloride] | 2
27 | Cl.NCC(CO)COc1sncc1NC(=O)c1nc(-c2c(F)cccc2F)c(C(F)(F)F)cc1N (centres unmarked) [Example 59, 3-amino-N-(5-(3-amino-2-(hydroxymethyl)propoxy)isothiazol-4-yl)-6-(2,6-difluorophenyl)-5-(trifluoromethyl)picolinamide hydrochloride] | 2.3
28 | Cl.NC1CCCC(Oc2sncc2NC(=O)c2ccc(C(F)(F)F)c(-c3c(F)cccc3F)n2)C1 (centres unmarked) [Example 60, N-(5-((3-aminocyclohexyl)oxy)isothiazol-4-yl)-6-(2,6-difluorophenyl)-5-(trifluoromethyl)picolinamide hydrochloride] | 0.1
29 | Cl.Nc1cc(C(F)(F)F)c(-c2c(F)cccc2F)nc1C(=O)Nc1cnsc1OC1CCCC(N)C1 (centres unmarked) [Example 61, 3-amino-N-(5-((3-aminocyclohexyl)oxy)isothiazol-4-yl)-6-(2,6-difluorophenyl)-5-(trifluoromethyl)picolinamide hydrochloride] | 0.4
